Assay results reported in patent US10532040B2, “Methods of treating cancer with herbacetin” (REGENTS OF THE UNIVERSITY OF MINNESOTA, priority 2011, dated 2020).
“Also recorded” adds a separate entry of the source.

Legend:
ODC = biological target: T1, ODC (Homo sapiens, UniProt P11926); assay: pull-down assay with herbacetin-conjugated Sepharose 4B beads (recombinant ODC or HCT116 lysate); format: binding; details: recombinant ODC protein or HCT116 cell lysate, Western blot
T1 sequence (P11926 1-461): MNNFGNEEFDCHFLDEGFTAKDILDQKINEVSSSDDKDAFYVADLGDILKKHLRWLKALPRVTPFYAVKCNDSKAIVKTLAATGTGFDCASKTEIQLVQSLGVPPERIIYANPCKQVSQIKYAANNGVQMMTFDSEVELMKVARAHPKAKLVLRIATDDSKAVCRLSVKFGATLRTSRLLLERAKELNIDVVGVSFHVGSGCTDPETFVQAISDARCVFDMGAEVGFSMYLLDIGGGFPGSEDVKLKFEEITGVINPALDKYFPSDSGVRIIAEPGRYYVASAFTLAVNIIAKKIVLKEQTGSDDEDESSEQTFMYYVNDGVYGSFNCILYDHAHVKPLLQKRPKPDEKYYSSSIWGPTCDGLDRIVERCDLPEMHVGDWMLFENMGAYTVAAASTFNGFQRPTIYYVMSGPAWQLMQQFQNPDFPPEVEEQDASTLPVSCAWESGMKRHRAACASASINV
Method: A recombinant human ODC protein (200 ng) or total cell lysates (500 μg) to were incubated with herbacetin Sepharose 4B (or Sepharose 4B only as a control) beads (50 μl, 50% slurry) in reaction buffer (50 mM Tris pH 7.5, 5 mM EDTA, 150 mM NaCl, 1 mM DTT, 0.01% NP40, 2 μg/mL bovine serum albumin). After incubation with gentle rocking overnight at 4° C., the beads were washed 5 times with buffer (50 mM Tris pH 7.5, 5 mM EDTA, 150 mM NaCl, 1 mM DTT, 0.01% NP40) and binding was determined by Western blotting.

[1] = test system: activator protein-1 (AP-1); assay: TPA-induced AP-1 reporter activity in JB6 cells; format: cell-based, mouse; details: JB6 cells pre-treated 2 h, then TPA 48 h
Method: FIGS. 3A-3H. Anticancer effect of herbacetin. (a) The effect of herbacetin on ODC activity in colon cancer cell lines was measured as the release of CO2 from L-[1-C^14] ornithine. […] (b) The effect of herbacetin and DFMO on the growth of colon cancer cells and (c) TPA-induced JB6 cell growth was compared. Cells were incubated for 72 h and growth was estimated using the MTS assay. (d) The effect of herbacetin on anchorage independent HCT116 colon cancer cell growth and (e) TPA-induced JB6 cell transformation was assessed. Cells were incubated for 2 weeks and then colonies were counted using a microscope and the Image-Pro PLUS (v.6) computer software program. The effect of herbacetin on AP-1 reporter activity in (f) HCT116 colon cancer cells and (g) TPA-induced AP-1 reporter activity in JB6 mouse epidermal cells was analyzed using the substrates included in the reporter assay system. […] (h) The effect of herbacetin on the phosphorylation of ERK1 and ERK2 in HCT116 colon cancer cells was determined by Western blotting. […]
We determined whether herbacetin affected the reporter activity of the MAP kinase target transcription factor, activator protein-1 (AP-1), in HCT116 cells or JB6 cells stimulated with TPA. […] AP-1 reporter activity was then measured (FIG. 3f, g) and the activity was attenuated by herbacetin in colon cancer cells and in TPA-activated JB6 cells. […]

[2] = test system: JB6 mouse epidermal skin cells; assay: proliferation and colony formation of JB6 mouse epidermal skin cells; format: cell-based; details: preliminary data
Method: FIGS. 3A-3H. Anticancer effect of herbacetin. (a) The effect of herbacetin on ODC activity in colon cancer cell lines was measured as the release of CO2 from L-[1-C^14] ornithine. […] (b) The effect of herbacetin and DFMO on the growth of colon cancer cells and (c) TPA-induced JB6 cell growth was compared. Cells were incubated for 72 h and growth was estimated using the MTS assay. (d) The effect of herbacetin on anchorage independent HCT116 colon cancer cell growth and (e) TPA-induced JB6 cell transformation was assessed. Cells were incubated for 2 weeks and then colonies were counted using a microscope and the Image-Pro PLUS (v.6) computer software program. The effect of herbacetin on AP-1 reporter activity in (f) HCT116 colon cancer cells and (g) TPA-induced AP-1 reporter activity in JB6 mouse epidermal cells was analyzed using the substrates included in the reporter assay system. Data are represented as means±S.D. of triplicate values from three independent experiments and the asterisk (*) indicates a significant (p<0.05) effect of herbacetin or DFMO compared to untreated or TPA-treated controls. (h) The effect of herbacetin on the phosphorylation of ERK1 and ERK2 in HCT116 colon cancer cells was determined by Western blotting. Similar results were observed from two independent experiments.

APC^min+ mice = assay: APC^min+ mouse model, 8 weeks; format: in vivo
Description: Male C57BL/6J^(Min/+) mice were obtained from Jackson Laboratory and maintained under “specific pathogen-free” conditions according to the guidelines established by the University of Minnesota Institutional Animal Care and Use Committee. APC^min+ male mice were bred with C57BL/6J APC wildtype female mice. The progeny were genotyped by PCR assay to determine whether they were heterozygous for the min allele or were homozygous wildtype. APC^min+ male or female progeny were randomly assigned to groups after weaning at 3 weeks. Mice (5˜6 weeks old) were divided into 4 groups: 1) untreated vehicle group (n=12); 2) mice treated with 0.4 mg herbacetin/kg of body weight (n=13); 3) mice treated with 2 mg herbacetin/kg of body weight (n=13); and mice treated with 100 mg difluoromethylornithine (DFMO)/kg of body weight (n=10). Herbacetin, DFMO, or vehicle was injected 3 times a week for 8 weeks.

[3] = test system: HCT116 colon cancer cells; assay: cDNA microarray of HCT116 colon cancer cells; format: cell-based; details: HCT116, 1 or 2 days herbacetin
Method: FIGS. 7A-7D. Profiling of gene expression in HCT116 colon cancer cells treated with herbacetin 1 or 2 days was assessed by microarray. […] (d) RT-PCR validation of differentially expressed genes.
RNA samples from cells treated or not treated for 1 or 2 days with herbacetin were used. Data were analyzed using hierarchical clustering and the DAVID database as previously described (Sturn, A., Quackenbush, J. & Trajanoski, Z. Genesis: cluster analysis of microarray data. Bioinformatics 18, 207-208 (2002); Huang da, W., Sherman, B. T. & Lempicki, R. A. Systematic and integrative analysis of large gene lists using DAVID bioinformatics resources. Nat Protoc 4, 44-57 (2009)).

[4] = herbacetin 0.4 or 2 mg/kg, DFMO 100 mg/kg, 3 times/week for 8 weeks, vs vehicle

Structure (SMILES): O=c1c(O)c(-c2ccc(O)cc2)oc2c(O)c(O)cc(O)c12 [herbacetin, 3,5,7,8,4′-Pentahydroxyflavone]
- binding to ODC (ODC): directly binds to ODC; also recorded: bind to ornithine decarboxylase (ODC)
- AP-1 reporter activity [1]: attenuated
- cell proliferation and anchorage independent colony formation [2]: decrease cell proliferation and anchorage independent colony formation
- anemia (bloody stools) (APC^min+ mice; 0.4 or 2 mg/kg, 8 weeks): seemed to reduce anemia
- tolerability: signs of toxicity, body weight loss (APC^min+ mice; 8 weeks treatment): without overt signs of toxicity or significant body weight loss
- polyp number (APC^min+ mice; [4]): significantly suppressed
- polyp size (APC^min+ mice; [4]): significantly suppressed
- overall appearance of mice (APC^min+ mice; vs vehicle- or DFMO-treated mice): appeared healthier
- gene expression [3]: significantly altered genes involved in proliferation, cell cycle, apoptosis and metabolic processes
